Results: patent publication US9687548B2, “Photoactivatable caged tamoxifen and tamoxifen derivative molecules and methods of use thereof” (Dana-Farber Cancer Institute, Inc., priority 2012, dated 2017)
Entries after “also recorded” stand apart in the source; their conditions may differ.

Experiments:
[1] = Stability of caged molecule in the absence of light; assay type: physicochemical; conditions: in the dark / prior to illumination
[2] = biological target: T1, CreER (Homo sapiens, UniProt P03372, G400V/L544A/M543A); assay: In vivo photoactivation in skin of Rosa26CreERT2; mT/mG mice (OV-110 imaging); design: species or system mouse
T1 construct: host or cells: cells and tissues (MEFs, mammary epithelial acini, skin, mammary gland) of heterozygous Rosa26CreER^T2 knock-in reporter mice; the other entry of the earlier key: cre (P06956, Recombinase cre)
T1 sequence (P03372 with tags, fused parts or gaps G400V/M543A/L544A): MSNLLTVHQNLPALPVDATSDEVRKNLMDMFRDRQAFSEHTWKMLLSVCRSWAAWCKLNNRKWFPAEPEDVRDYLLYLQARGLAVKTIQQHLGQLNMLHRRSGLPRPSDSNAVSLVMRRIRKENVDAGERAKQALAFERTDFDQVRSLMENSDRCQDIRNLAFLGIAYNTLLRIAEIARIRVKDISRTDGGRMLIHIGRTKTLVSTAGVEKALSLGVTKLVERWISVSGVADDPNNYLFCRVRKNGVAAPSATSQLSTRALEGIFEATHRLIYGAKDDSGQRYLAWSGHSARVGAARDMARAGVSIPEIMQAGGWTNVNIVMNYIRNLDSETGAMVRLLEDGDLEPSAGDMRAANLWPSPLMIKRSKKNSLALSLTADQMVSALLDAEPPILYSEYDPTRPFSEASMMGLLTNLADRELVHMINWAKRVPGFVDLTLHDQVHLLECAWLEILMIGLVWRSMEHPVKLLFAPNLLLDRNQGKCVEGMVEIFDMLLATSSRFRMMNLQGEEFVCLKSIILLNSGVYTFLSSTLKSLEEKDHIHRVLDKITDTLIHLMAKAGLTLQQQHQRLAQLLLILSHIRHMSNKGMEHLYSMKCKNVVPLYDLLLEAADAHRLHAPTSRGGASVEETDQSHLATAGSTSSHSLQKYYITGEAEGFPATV
Description: (§1) Female mice of 6-8 weeks old were clean shaven on the dorsal and ventral sides. The caged 4-OHC was dissolved in 20% Solutol for in vivo delivery. The vehicle or 1 mg caged 4-OHC in vehicle was injected intraperitoneally. One hour later, the mice were anesthetized with isoflurane and exposed to UV light from the hand-held 6 W long-wavelength UV lamp (UVP, LLC) for 15 minutes. Alternatively, for mammary tissue illumination, the right inguinal (#4) mammary fat pad was exposed by creating a small skin flap and illumination with UV light for 15 minutes. For enhanced photoconversion, this procedure was repeated four times. On the seventh day, the mice were imaged with Olympus OV-110 epifluorescence imager (Thurber et al., PLoS One 4:e8053, 2009) to detect fluorescent signals emitted from the skin on the dorsal and ventral sides. Alternatively, the left and right mammary glands were dissected and immediately imaged using the intravital laser scanning microscope IV-110 (Kelly et al., PLoS Med. 5:e85, 2008).

[3] = 4-OHC compared with 4-OHT; cited from earlier work
[4] = biological target: T2, CreER fusion protein (Homo sapiens, UniProt P03372, G400V/L544A/M543A); assay: X-gal (lacZ) reporter in MEFs from Rosa26CreERT2; R26R (Lox-STOP-Lox-lacZ) embryos; assay type: cell-based, mouse; conditions: with vs without 365 nm UV light exposure; X-gal stained MEFs
T2 construct: host or cells: cells and tissues (MEFs, mammary epithelial acini, skin, mammary gland) of heterozygous Rosa26CreER^T2 knock-in reporter mice; the other entry of the earlier key: cre (P06956, Recombinase cre)
T2 sequence (P03372 with tags, fused parts or gaps G400V/M543A/L544A): T1 sequence (P03372 with tags, fused parts or gaps G400V/M543A/L544A)
Description: (§2) Mouse embryonic fibroblasts (MEFs) were isolated as described (Sharpless et al., Mol. Cell 8:1187-1196, 2001) and grown in DMEM with 10% FBS. To shed UV light on the cells, the cells were first grown in 60-mm dish overnight to become nearly confluent. The next day, the medium was replaced with medium containing caged 4-OHC at 5 μM and incubated for 30 minutes. The cells were washed twice quickly with warm PBS and covered with fresh medium. The dish was placed on the UV emission surface of a handheld 6 W long-wavelength UV lamp (UVP, LLC), and UV light was kept on for a designated period of time. The cells were put back into the incubator to culture for 48-72 h before live imaging or flow cytometric analysis.
Mouse embryonic fibroblasts (MEFs) isolated from the Rosa26CreER^T2; mT/mG mice in cell culture were used to test the caged 4-OHC activity. The Rosa26CreER^T2; mT/mG MEFs were treated with either 4-OHC or caged 4-OHC and illuminated at 365 nm. […] To further test the caged 4-OHC, another reporter mouse was generated (Rosa26CreER^T2; R26R mice). The Rosa26CreER^T2; R26R mice were generated by crossing homozygous Rosa26CreER^T2 mice with homozygous Rosa26-loxP-STOP-loxP-lacZ mice (experimental system shown in FIG. 9).
An additional set of experiments were performed to test the ability of Caged Molecules I, II, and III (shown in Schematic #5) to induce nuclear translocation of a ER fusion protein in a cell following light exposure. Mouse embryonic fibroblasts from Rosa26-CreER^T2; Lox-STOP-Lox-lacZ embryos were treated with 5 μM 4-OHC (positive control; lower left panel), treat Caged Molecule I (“Compound I”) with or without 365 nm UV light exposure (top right and top center panels, respectively), Caged Molecule II (“Compound II”) with or without 365 nm UV light exposure (middle right and middle center panels, respectively), or Caged Molecule III (“Compound III”) with or without 365 UV light exposure (bottom right and […] panels, respectively).

[5] = biological target: T1, CreER; assay: In vivo photoactivation in mammary gland of female Rosa26CreERT2; mT/mG mice (ex vivo IV-110 imaging); design: species or system mouse
Description: as §1

[6] = biological target: T1, CreER; assay: Photoactivated EGFP expression in MEFs from Rosa26CreERT2; mT/mG mice; assay type: cell-based, mouse; conditions: 5 μM, 365 nm illumination vs no light
Description: as §2
A recently developed double-fluorescent Cre reporter mouse, the mT/mG strain (Muzumdar, Genesis 45:593, 2007) was used to design a biological system that can faithfully report on the induced activity of CreER. This mouse model expresses tdTomato prior to and EGFP following Cre-mediated recombination ubiquitously in tissues. […] The photoinduced activity of caged tamoxifen and caged tamoxifen derivative molecules can be assessed by illuminating the cells and tissues from these mice and looking for EGFP-expressed cells (FIG. 1).

[7] = UV-Vis and HPLC-MS characterization of the photocleavage of caged 4-OHC; assay type: physicochemical
Description: A 0.25 mM solution of caged 4-OHC in 1:1 (v/v) water:acetonitrile was used for the UV-Vis spectroscopic characterization of the photocleavage reaction. The solution of the caged 4-OHC was placed in a 96-well black clear bottom microplate. The solution was then irradiated at ˜365 nm using a hand-held UV lamp. After light exposure, UV-Vis spectra of the solution was recorded in a TECAN microplate reader. A time course of the photocleavage reaction was monitored by exposing the caged 4-OHC solution to light for different durations, and subsequently recording the UV-Vis spectra of the solution.
A 2.0 mM solution of caged 4-OHC in 1:1 (v/v) water: acetonitrile was used for the HPLC-MS study. The solution of the caged 4-OHC was placed in a glass vial and irradiated at ˜365 nm using a hand-held UV lamp. Aliquots were taken at different time intervals and injected to the HPLC-MS machine for analysis. Prism 5 (GraphPad, La Jolla, Calif.) for Mac was used to plot the data.

[8] = biological target: T1, CreER; assay: Photoactivated EGFP expression in mammary acinus 3D culture from Rosa26CreERT2; mT/mG mice; assay type: cell-based, mouse; conditions: 5 μM, 1 min UV lamp or 60× objective DAPI filter
Description: Mouse mammary epithelial cells […] were isolated from 6-8 week old female Rosa26CreER^T2; mT/mG mice as previously described (Tiede et al., PLoS One 4:e8035, 2009). Briefly, mammary glands were excised, minced using scalpels, and digested for 1 hour in 300 U/mL type 1A collagenase (Sigma) and 100 U/mL hyaluronidase (Sigma). The cells were then treated with 0.25% trypsin/EDTA, dispase (Invitrogen)/DNase (Sigma), and ACK lysing buffer (Invitrogen) in succession. Between each treatment, cells were rinsed in MEGM (1:1 DMEM:F12 Ham supplemented with […], 500 ng/mL hydrocortisone, 10 ng/mL EGF, 20 ng/mL cholera toxin, 5% bovine calf serum, and 1× penicillin/streptomycin). Afterwards, cells were filtered twice through […] nylon cell strainers and seeded in 35-mm dishes that contained a layer of Growth Factor Reduced Matrigel (BD Biosciences) measuring approximately 1-2 mm thickness. Acini usually formed in 4-8 days. During photoactivation, the acini were incubated with MEGM containing 5 μM caged 4-OHC for 1 hour. The cells were washed twice quickly with warm PBS and covered with fresh medium. The dish was placed on the UV emission surface of a hand-held 6 W long-wavelength UV lamp (UVP, LLC, exposure time: 1 minute) or above the 60× objective of an inverted epifluorescent microscope equipped with a standard DAPI filter set. […]

4-hydrocyclofen conjugated with the photoactivatable 4,5-demethoxy-2-nitrophen methanol (DMNPM) group [DMNPM caged 4-hydroxycyclofen, reference compound]
breakdown in the absence of light exposure [1]: spontaneous breakdown in the absence of appropriate light exposure

CN(C)CCOc1ccc(C(=C2CCCCC2)c2ccc(O)cc2)cc1 [4-OHC, 4-hydroxycyclofen, reference compound]
EGFP signal at whole mouse level ([2]; treated with 4-OHC (uncaged)): strong EGFP signal was detected | photostability [3]: better photostability

COc1ccc(-c2ccc([N+](=O)[O-])c(C(C)COc3ccc(C(=C4CCCCC4)c4ccc(OCCN(C)C)cc4)cc3)c2)cc1 (stereo not drawn) [Caged Molecule III]
nuclear translocation / nuclear transport of the ER fusion protein [4]: resulted in an increase in the nuclear transport of the ER fusion protein

CCOC(=O)COc1c(OC)cc([N+](=O)[O-])c(COc2ccc(C(=C3CCCCC3)c3ccc(OCCN(C)C)cc3)cc2)c1[N+](=O)[O-] [Caged Molecule II]
nuclear translocation / nuclear transport of the ER fusion protein [4]: resulted in an increase in the nuclear transport of the ER fusion protein

CCOc1c(OC)cc([N+](=O)[O-])c(COc2ccc(C(=C3CCCCC3)c3ccc(OCCN(C)C)cc3)cc2)c1[N+](=O)[O-] [Caged Molecule I]
nuclear translocation / nuclear transport of the ER fusion protein [4]: resulted in an increase in the nuclear transport of the ER fusion protein

COc1cc(C(C)Oc2ccc(C(=C3CCCCC3)c3ccc(OCCN(C)C)cc3)cc2)c([N+](=O)[O-])cc1OC (stereo not drawn) [caged 4-OHC, 1-(4,5-dimethoxy-2-nitrophenyl) ethanol (DMNPE) caged 4-hydroxycyclofen]
EGFP signal on illuminated ventral vs non-illuminated dorsal skin ([2]; intraperitoneal, UV illumination only on ventral skin): EGFP signal was observed on the ventral skin but not on the dorsal skin | average increase in fluorescence intensity ([2]; intraperitoneal, ventral skin UV illuminated): 2.5 fold | EGFP induction in illuminated right vs non-illuminated left mammary gland ([5]; intraperitoneal, 365 nm light on right mammary gland, seven days later): the right, but not the left, mammary gland showed strong EGFP induction; also recorded: expressed EGFP | diffusion after uncaging to other organs ([5]; skin and mammary gland data taken together): limited diffusion after uncaging | breakdown in the absence of light exposure [1]: did not appear to show any sign of breakdown prior to illumination | EGFP expression after photocleavage [6]: induced EGFP expression in a stringent fashion | conversion to / release of 4-OHC upon UV irradiation ([7]; HPLC-MS, ~365 nm, 2.0 mM in water:acetonitrile 1:1): quantitative, unidirectional conversion to 4-OHC; also recorded: quantitative release of 4-OHC | time to completion of photochemical (photocleavage) reaction ([7]; hand-held 365 nm UV lamp, UV-Vis, water:acetonitrile 1:1): ≤ 10 min | EGFP expression in response to photoactivation [8]: very tight control of EGFP expression in response to photoactivation
